From ChEMBL document CHEMBL4130599, “VU6010608, a Novel mGlu7 NAM from a Series of N-(2-(1H-1,2,4-Triazol-1-yl)-5-(trifluoromethoxy)phenyl)benzamides” (ACS Med Chem Lett, 2017)
Each block holds one compound with its values, some of them ahead of it. Active and inactive are the calls of the source. No cut-off for these calls is given here.

Tests used:
[1] = Brain to plasma partition coefficient, Kp of the compound in cannulated Sprague-Dawley rat at 0.2 to 0.25 mg/kg, iv administered as cassette dose measured after 0.25 hrs by LC-MS/MS analysis; format: ADME, organism-based; conditions: brain and plasma
[2] = Protein binding in rat plasma assessed as unbound fraction measured after 4 hrs by LC-MS/MS based equilibrium dialysis method; format: ADME, cell-free
[3] = Protein binding in rat brain assessed as unbound fraction measured after 6 hrs by LC-MS/MS based equilibrium dialysis method; format: ADME, tissue-based
[4] = Unbound brain to plasma concentration ratio in cannulated Sprague-Dawley rat at 0.2 to 0.25 mg/kg, iv administered as cassette dose measured after 0.25 hrs by LC-MS/MS analysis; format: ADME, organism-based; conditions: brain and plasma, read-out: K(p,uu,brain)
[5] = Protein binding in mouse plasma assessed as unbound fraction measured after 4 hrs by LC-MS/MS based equilibrium dialysis method; format: ADME, cell-free
[6] = target: Metabotropic glutamate receptor 7 (Rattus norvegicus, UniProt P35400); assay: Negative allosteric modulation of rat mGlu7 expressed in HEK cells co-expressing Galpha15 assessed as reduction in L-AP4-induced intracellular calcium flux pretreated for 142 secs followed by glutamate addition and subsequent stimulation of L-AP4 for 40 secs by Fluo-4 AM dye based fluorescence assay; format: functional, cell-based
[7] = target: T1, Metabotropic glutamate receptor 4 (Homo sapiens, UniProt Q14833); assay: Antagonist activity at human mGlu4 expressed in CHO cells co-expressing Gqi5 assessed as reduction in L-AP4-induced intracellular calcium flux pretreated for 142 secs followed by glutamate addition and subsequent stimulation of L-AP4 for 40 secs by Fluo-4 AM dye based fluorescence assay; format: functional, cell-based
[8] = target: T2, Metabotropic glutamate receptor 8 (Rattus norvegicus, UniProt P70579); assay: Antagonist activity at rat mGlu8 expressed in HEK cells co-expressing Galpha15 assessed as reduction in L-AP4-induced intracellular calcium flux pretreated for 142 secs followed by glutamate addition and subsequent stimulation of L-AP4 for 40 secs by Fluo-4 AM dye based fluorescence assay; format: functional, cell-based
[9] = target: T3, Metabotropic glutamate receptor 3 (Homo sapiens, UniProt Q14832); assay: Antagonist activity at mGlu3 receptor (unknown origin); format: functional
[10] = Drug level in C57/Bl6 mouse brain at 10 mg/kg, ip by LC-MS/MS analysis; format: ADME, organism-based; conditions: in vivo, read-out: Drug uptake
[11] = Unbound brain to plasma concentration ratio in C57/Bl6 mouse at 30 mg/kg, ip measured after 0.5 hrs by LC-MS/MS analysis; format: ADME, organism-based; conditions: brain and plasma, read-out: K(p,uu,brain)
[12] = target: T2, Metabotropic glutamate receptor 8; assay: Agonist activity at rat mGlu8 expressed in HEK cells co-expressing Galpha15 measured after 142 secs by Fluo-4 AM dye based calcium flux assay; format: functional, cell-based
[13] = Unbound drug level in C57/Bl6 mouse plasma assessed as unbound fraction at 30 mg/kg, ip by LC-MS/MS analysis; format: ADME, organism-based; conditions: in vivo
[14] = target: T1, Metabotropic glutamate receptor 4; assay: Agonist activity at human mGlu4 expressed in CHO cells co-expressing Gqi5 after 142 secs by Fluo-4AM dye based calcium flux assay; format: functional, cell-based
[15] = target: T4, Metabotropic glutamate receptor 1 (Homo sapiens, UniProt Q13255); assay: Agonist activity at mGlu1 receptor (unknown origin); format: functional
[16] = target: T5, Metabotropic glutamate receptor 2 (Homo sapiens, UniProt Q14416); assay: Agonist activity at mGlu2 receptor (unknown origin); format: functional
[17] = Drug level in C57/Bl6 mouse plasma at 10 mg/kg, ip by LC-MS/MS analysis; format: ADME, organism-based; conditions: in vivo
Brain = assay: Blockade of high-frequency stimulation-induced long-term potentiation at SC-CA1 synapses in C57BL/6J mouse brain slices at 10 uM pretreated for 10 mins followed by high-frequency stimulation measured up to 60 mins; format: functional, tissue-based
[18] = Clearance in cannulated Sprague-Dawley rat at 0.2 to 0.25 mg/kg, iv administered as cassette dose by LC-MS/MS analysis; format: ADME, organism-based; conditions: in vivo
[19] = target: T5, Metabotropic glutamate receptor 2; assay: Antagonist activity at mGlu2 receptor (unknown origin); format: functional
[20] = Drug level in C57/Bl6 mouse brain at 100 mg/kg, ip by LC-MS/MS analysis; format: ADME, organism-based; conditions: in vivo, read-out: Drug uptake
[21] = Unbound brain to plasma concentration ratio in C57/Bl6 mouse at 10 mg/kg, ip measured after 0.5 hrs by LC-MS/MS analysis; format: ADME, organism-based; conditions: brain and plasma, read-out: K(p,uu,brain)
[22] = Brain to plasma partition coefficient, Kp of the compound in C57/Bl6 mouse at 10 mg/kg, ip measured after 0.5 hrs by LC-MS/MS analysis; format: ADME, organism-based; conditions: brain and plasma
[23] = Unbound brain to plasma concentration ratio in C57/Bl6 mouse at 100 mg/kg, ip measured after 0.5 hrs by LC-MS/MS analysis; format: ADME, organism-based; conditions: brain and plasma, read-out: K(p,uu,brain)
[24] = Unbound drug level in C57/Bl6 mouse brain assessed as unbound fraction at 100 mg/kg, ip by LC-MS/MS analysis; format: ADME, organism-based; conditions: in vivo
[25] = target: T6, Metabotropic glutamate receptor 5 (Homo sapiens, UniProt P41594); assay: Agonist activity at mGlu5 receptor (unknown origin); format: functional
[26] = Brain to plasma partition coefficient, Kp of the compound in C57/Bl6 mouse at 30 mg/kg, ip measured after 0.5 hrs by LC-MS/MS analysis; format: ADME, organism-based; conditions: brain and plasma
[27] = Unbound drug level in C57/Bl6 mouse brain assessed as unbound fraction at 10 mg/kg, ip by LC-MS/MS analysis; format: ADME, organism-based; conditions: in vivo
[28] = Drug level in C57/Bl6 mouse brain at 30 mg/kg, ip by LC-MS/MS analysis; format: ADME, organism-based; conditions: in vivo, read-out: Drug uptake
[29] = Oral bioavailability in cannulated Sprague-Dawley rat; format: ADME, organism-based; conditions: in vivo
Mus musculus = assay: Toxicity in C57/Bl6 mouse at 100 mg/kg, ip; format: organism-based; conditions: in vivo
[30] = target: T7, Metabotropic glutamate receptor 6 (Homo sapiens, UniProt O15303); assay: Antagonist activity at mGlu6 receptor (unknown origin); format: functional
[31] = Drug level in C57/Bl6 mouse plasma at 30 mg/kg, ip by LC-MS/MS analysis; format: ADME, organism-based; conditions: in vivo
[32] = target: T4, Metabotropic glutamate receptor 1; assay: Antagonist activity at mGlu1 receptor (unknown origin); format: functional
[33] = target: T7, Metabotropic glutamate receptor 6; assay: Agonist activity at mGlu6 receptor (unknown origin); format: functional
[34] = Brain to plasma partition coefficient, Kp of the compound in C57/Bl6 mouse at 100 mg/kg, ip measured after 0.5 hrs by LC-MS/MS analysis; format: ADME, organism-based; conditions: brain and plasma
[35] = target: T3, Metabotropic glutamate receptor 3; assay: Agonist activity at mGlu3 receptor (unknown origin); format: functional
[36] = Unbound drug level in C57/Bl6 mouse plasma assessed as unbound fraction at 100 mg/kg, ip by LC-MS/MS analysis; format: ADME, organism-based; conditions: in vivo
[37] = Unbound drug level in C57/Bl6 mouse brain assessed as unbound fraction at 30 mg/kg, ip by LC-MS/MS analysis; format: ADME, organism-based; conditions: in vivo
[38] = target: T6, Metabotropic glutamate receptor 5; assay: Antagonist activity at mGlu5 receptor (unknown origin); format: functional
[39] = Half life in cannulated Sprague-Dawley rat at 0.2 to 0.25 mg/kg, iv administered as cassette dose by LC-MS/MS analysis; format: ADME, organism-based; conditions: in vivo
[40] = Drug metabolism in rat hepatic S9 fraction assessed as amide hydrolysis after 60 mins in presence of NADPH/UDPGA/PAPS by LC/MS analysis; format: ADME, subcellular, Liver; conditions: s9, 1 h
[41] = Unbound drug level in C57/Bl6 mouse plasma at 10 mg/kg, ip by LC-MS/MS analysis; format: ADME, organism-based; conditions: in vivo
[42] = Volume of distribution at steady state in cannulated Sprague-Dawley rat at 0.2 to 0.25 mg/kg, iv administered as cassette dose by LC-MS/MS analysis; format: ADME, organism-based; conditions: in vivo, read-out: Vdss

T1 sequence (Q14833 whole entry): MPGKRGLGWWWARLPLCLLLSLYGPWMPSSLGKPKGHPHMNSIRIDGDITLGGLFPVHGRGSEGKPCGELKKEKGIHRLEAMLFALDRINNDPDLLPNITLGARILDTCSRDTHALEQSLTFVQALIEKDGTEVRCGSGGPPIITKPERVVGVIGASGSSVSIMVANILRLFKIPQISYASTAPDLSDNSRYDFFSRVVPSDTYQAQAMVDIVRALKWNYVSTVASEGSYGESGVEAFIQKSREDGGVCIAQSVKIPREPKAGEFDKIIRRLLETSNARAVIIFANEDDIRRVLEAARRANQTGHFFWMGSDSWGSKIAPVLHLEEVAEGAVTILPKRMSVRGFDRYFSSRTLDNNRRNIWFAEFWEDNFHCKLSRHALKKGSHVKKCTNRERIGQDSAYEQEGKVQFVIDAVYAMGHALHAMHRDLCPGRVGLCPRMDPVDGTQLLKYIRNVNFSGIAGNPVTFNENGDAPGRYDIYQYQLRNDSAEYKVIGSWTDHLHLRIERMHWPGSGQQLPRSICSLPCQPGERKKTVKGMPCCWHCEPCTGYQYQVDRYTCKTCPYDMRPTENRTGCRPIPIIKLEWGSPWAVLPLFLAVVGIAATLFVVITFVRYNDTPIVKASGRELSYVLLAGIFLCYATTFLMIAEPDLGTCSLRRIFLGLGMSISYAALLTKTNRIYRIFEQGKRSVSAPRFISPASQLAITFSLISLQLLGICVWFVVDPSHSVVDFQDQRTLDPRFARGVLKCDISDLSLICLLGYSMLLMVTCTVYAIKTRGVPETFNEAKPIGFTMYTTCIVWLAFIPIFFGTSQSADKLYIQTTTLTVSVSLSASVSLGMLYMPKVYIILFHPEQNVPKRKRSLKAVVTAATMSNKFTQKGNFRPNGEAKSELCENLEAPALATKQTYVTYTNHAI
Chain of Metabotropic glutamate receptor 7 (P35400 whole entry): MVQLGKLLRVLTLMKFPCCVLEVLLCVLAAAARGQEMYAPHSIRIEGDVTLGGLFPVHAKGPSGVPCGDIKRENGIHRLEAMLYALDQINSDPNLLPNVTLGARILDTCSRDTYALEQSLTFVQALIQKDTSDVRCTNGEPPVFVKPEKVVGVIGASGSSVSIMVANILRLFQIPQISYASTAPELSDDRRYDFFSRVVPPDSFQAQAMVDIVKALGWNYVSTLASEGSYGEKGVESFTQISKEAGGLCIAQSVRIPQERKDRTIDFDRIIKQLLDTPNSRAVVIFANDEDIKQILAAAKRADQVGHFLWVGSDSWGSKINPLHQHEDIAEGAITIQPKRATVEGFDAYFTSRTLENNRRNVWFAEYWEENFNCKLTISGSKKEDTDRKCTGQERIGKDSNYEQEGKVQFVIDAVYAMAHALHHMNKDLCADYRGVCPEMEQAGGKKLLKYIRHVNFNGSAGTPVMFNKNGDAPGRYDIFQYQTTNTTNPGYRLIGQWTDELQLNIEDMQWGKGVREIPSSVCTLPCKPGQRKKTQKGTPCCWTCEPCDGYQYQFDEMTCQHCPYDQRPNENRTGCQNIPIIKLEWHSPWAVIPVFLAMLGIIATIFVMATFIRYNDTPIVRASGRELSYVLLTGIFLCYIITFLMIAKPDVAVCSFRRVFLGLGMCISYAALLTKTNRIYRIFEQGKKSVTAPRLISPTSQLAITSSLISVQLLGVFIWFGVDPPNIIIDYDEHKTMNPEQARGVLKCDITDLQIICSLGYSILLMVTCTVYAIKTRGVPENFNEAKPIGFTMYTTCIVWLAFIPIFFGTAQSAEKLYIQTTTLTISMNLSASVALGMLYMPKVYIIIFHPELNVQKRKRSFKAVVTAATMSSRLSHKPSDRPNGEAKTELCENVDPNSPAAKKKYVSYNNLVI
T2 sequence (P70579 whole entry): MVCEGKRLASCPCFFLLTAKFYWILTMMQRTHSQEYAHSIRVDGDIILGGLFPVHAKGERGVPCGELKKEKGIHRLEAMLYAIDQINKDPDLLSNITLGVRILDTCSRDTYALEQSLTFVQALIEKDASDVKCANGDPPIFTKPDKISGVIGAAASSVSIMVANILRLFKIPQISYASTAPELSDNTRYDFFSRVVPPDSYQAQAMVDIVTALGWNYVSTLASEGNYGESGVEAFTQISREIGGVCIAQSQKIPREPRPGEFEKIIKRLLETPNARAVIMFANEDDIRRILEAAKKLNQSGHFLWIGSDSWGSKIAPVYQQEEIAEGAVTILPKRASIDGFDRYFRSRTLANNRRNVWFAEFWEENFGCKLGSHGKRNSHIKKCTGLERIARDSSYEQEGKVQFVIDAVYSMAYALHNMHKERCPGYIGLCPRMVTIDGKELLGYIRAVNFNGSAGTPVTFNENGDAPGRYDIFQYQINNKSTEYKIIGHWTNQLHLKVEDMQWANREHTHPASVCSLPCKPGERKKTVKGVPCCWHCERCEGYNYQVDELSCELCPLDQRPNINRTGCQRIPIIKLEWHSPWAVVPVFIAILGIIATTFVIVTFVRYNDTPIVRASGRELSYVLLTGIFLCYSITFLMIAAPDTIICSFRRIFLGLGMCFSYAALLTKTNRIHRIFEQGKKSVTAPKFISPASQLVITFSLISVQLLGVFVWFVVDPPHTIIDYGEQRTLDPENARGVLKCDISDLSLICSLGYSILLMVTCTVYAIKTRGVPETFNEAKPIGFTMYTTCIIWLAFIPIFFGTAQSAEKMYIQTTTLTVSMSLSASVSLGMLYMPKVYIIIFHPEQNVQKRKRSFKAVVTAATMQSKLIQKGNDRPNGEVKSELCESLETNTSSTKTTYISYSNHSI
T4 sequence (Q13255 whole entry): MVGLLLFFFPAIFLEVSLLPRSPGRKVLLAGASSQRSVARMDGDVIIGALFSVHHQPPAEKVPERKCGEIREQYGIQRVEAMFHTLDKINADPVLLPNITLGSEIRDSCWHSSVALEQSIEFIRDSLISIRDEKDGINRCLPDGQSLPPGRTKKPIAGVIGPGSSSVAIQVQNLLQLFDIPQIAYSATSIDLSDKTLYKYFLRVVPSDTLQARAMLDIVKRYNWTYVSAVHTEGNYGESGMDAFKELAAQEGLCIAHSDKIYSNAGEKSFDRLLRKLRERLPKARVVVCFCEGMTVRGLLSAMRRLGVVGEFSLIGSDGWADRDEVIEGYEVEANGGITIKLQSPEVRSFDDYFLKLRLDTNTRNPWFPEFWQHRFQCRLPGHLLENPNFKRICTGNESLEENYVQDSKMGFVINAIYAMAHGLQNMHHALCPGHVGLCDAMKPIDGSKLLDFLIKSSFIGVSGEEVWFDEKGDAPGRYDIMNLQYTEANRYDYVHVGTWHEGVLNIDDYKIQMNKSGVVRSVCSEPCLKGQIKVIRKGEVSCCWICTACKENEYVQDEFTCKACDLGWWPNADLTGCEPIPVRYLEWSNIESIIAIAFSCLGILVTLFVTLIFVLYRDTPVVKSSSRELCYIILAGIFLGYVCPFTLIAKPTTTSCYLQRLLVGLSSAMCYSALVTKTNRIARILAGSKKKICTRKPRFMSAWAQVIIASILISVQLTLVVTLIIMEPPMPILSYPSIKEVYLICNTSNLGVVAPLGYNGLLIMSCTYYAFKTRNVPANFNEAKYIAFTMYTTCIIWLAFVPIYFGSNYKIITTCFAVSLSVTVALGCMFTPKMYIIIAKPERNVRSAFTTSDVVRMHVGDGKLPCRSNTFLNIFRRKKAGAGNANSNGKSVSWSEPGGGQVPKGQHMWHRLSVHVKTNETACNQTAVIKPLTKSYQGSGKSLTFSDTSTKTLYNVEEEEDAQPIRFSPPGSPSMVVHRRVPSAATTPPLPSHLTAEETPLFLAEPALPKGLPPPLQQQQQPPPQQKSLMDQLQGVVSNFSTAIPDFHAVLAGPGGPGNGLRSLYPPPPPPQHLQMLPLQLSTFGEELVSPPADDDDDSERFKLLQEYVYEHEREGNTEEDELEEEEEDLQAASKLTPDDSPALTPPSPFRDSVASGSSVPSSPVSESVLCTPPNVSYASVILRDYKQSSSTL
T3 sequence (Q14832 whole entry): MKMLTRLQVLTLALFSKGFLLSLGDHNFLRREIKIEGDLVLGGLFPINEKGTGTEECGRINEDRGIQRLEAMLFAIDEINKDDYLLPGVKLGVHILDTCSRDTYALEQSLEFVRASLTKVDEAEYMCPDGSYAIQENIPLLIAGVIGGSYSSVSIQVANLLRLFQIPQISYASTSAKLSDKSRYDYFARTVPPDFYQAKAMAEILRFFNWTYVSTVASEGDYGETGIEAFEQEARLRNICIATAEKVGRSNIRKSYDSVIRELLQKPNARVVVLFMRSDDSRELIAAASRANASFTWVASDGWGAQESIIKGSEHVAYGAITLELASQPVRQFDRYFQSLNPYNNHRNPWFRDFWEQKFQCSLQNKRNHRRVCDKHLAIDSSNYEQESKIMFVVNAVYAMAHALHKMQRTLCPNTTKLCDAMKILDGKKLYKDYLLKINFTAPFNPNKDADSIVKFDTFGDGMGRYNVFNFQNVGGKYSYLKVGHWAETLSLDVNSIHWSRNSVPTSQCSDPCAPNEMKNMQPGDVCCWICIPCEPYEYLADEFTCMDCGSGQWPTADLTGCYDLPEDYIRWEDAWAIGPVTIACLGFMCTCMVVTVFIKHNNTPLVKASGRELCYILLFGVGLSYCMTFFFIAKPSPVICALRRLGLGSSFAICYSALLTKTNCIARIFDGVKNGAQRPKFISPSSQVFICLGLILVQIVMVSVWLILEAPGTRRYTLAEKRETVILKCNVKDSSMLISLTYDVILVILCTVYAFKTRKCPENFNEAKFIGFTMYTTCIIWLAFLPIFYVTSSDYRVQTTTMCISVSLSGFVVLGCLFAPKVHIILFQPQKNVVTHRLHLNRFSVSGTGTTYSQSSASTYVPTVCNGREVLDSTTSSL

Compound: COc1ccc(C(=O)Nc2cc(Cl)ccc2-n2cncn2)cc1OC
IC50 [6]: 5.8 µM
IC50 [7]: > 30 µM
IC50 [8]: > 30 µM

Compound: CCc1nc2c(o1)CC(c1ccc(C)cc1C)CC2=O (stereo not given)
IC50 [6]: 0.676 µM
Activity (Mus musculus): Non-Toxic

Compound: COc1cc(C(=O)Nc2cc(OC(F)(F)F)ccc2-n2cncn2)ccc1OC1CCCC1
IC50 [6]: 1.4 µM

Further lines, with some results ahead:

Kp at 0.25 h [1]: 4.4
fraction unbound at 4 h [2]: 0.065
fraction unbound at 6 h [3]: 0.013
Kp uu at 0.25 h [4]: 0.89
fraction unbound at 4 h [5]: 0.063
Compound: COc1cc(C(=O)Nc2cc(OC(F)(F)F)ccc2-n2cncn2)ccc1OC(C)C

IC50 [9]: > 10 µM
concentration [10]: 380 nM
Kp at 0.25 h [1]: 3.4
Kp uu at 0.5 h [11]: 0.51
EC50 [12]: > 10 µM
Cp(f) [13]: 71.5 nM
EC50 [14]: > 10 µM
EC50 [15]: > 10 µM
IC50 [7]: > 10 µM
EC50 [16]: > 10 µM
concentration [17]: 180 nM
clearance [18]: 64.2 mL/min/kg
IC50 [19]: > 10 µM
concentration [20]: 1550 nM
Kp uu at 0.5 h [21]: 0.44
Kp at 0.5 h [22]: 2.01
Kp uu at 0.5 h [23]: 0.43
Drug uptake(free) [24]: 59 nM
Fu ([2]; 4 h): 0.244
fraction unbound at 6 h [3]: 0.034
EC50 [25]: > 10 µM
Kp at 0.5 h [26]: 2.36
Drug uptake(free) [27]: 14.3 nM
concentration [28]: 952 nM
bioavailability [29]: 18.9%
IC50 [30]: > 10 µM
concentration [31]: 402 nM
IC50 [32]: > 10 µM
Kp uu at 0.25 h [4]: 0.48
EC50 [33]: > 10 µM
IC50 [8]: > 10 µM
Kp at 0.5 h [34]: 2
fraction unbound at 4 h [5]: 0.178
EC50 [35]: > 10 µM
Cp(f) [36]: 137 nM
Drug uptake(free) [37]: 36.2 nM
IC50 [38]: > 10 µM
half-life [39]: 1.73 h
Drug metabolism [40]: Metabolite_Detected
Cp(f) [41]: 32.5 nM
Vd [42]: 6.2 L/kg
Compound: COc1ccc(C(=O)Nc2cc(OC(F)(F)F)ccc2-n2cncn2)cc1OC
Activity (Brain): Active
Activity (Mus musculus): Non-Toxic

Kp at 0.25 h [1]: 1.9
fraction unbound at 4 h [2]: 0.017
fraction unbound at 6 h [3]: 0.009
Kp uu at 0.25 h [4]: 1
fraction unbound at 4 h [5]: 0.019
Compound: CCCOc1ccc(C(=O)Nc2cc(OC(F)(F)F)ccc2-n2cncn2)cc1OC

Kp at 0.25 h [1]: 5.8
IC50 [6]: 0.71 µM
fraction unbound at 4 h [2]: 0.052
fraction unbound at 6 h [3]: 0.013
Kp uu at 0.25 h [4]: 1.5
fraction unbound at 4 h [5]: 0.039
Compound: COc1cc(C(=O)Nc2cc(OC(F)(F)F)ccc2-n2cncn2)ccc1OC1CC1

Kp at 0.25 h [1]: 3.5
fraction unbound at 4 h [2]: 0.072
fraction unbound at 6 h [3]: 0.017
Kp uu at 0.25 h [4]: 0.83
fraction unbound at 4 h [5]: 0.086
Compound: CCOc1ccc(C(=O)Nc2cc(OC(F)(F)F)ccc2-n2cncn2)cc1OC
